1 compound from ChEMBL document CHEMBL1147107, “Safety and pharmacokinetics of brecanavir, a novel human immunodeficiency virus type 1 protease inhibitor, following repeat administration with and without ritonavir in healthy adult subjects” (Antimicrob Agents Chemother, 2007) can be followed below.

SMILES strings stand for the structures.

Type in all cases: ADME, organism-based
The nature of data set [1]: Cmax in healthy human plasma at 800 mg measured on day 1. Further details: dose 800 mg.
Data set [2] in a line: AUC (0-tau) in healthy human plasma at 800 mg for every 12 hrs measured on day 15.
A short description of data set [3]: Apparent oral clearance in healthy human plasma at 800 mg for every 12 hrs measured on day 15.
Data set [4] is described as follows: Tmax in healthy human plasma at 800 mg for every 12 hrs measured on day 15.
Data set [5] in a line: Trough concentration in healthy human plasma at 800 mg for every 12 hrs measured on day 15. Particulars: read-out: Cmin.
Data set [6] can be described thus: Tmax in healthy human plasma at 800 mg measured on day 1.
Data set [7] can be described thus: Cmax in healthy human plasma at 800 mg for every 12 hrs measured on day 15. Further details: dose 800 mg.

With `Cc1nc(COc2ccc(C[C@H](NC(=O)O[C@H]3CO[C@H]4OCC[C@H]43)[C@H](O)CN(CC(C)C)S(=O)(=O)c3ccc4c(c3)OCO4)cc2)cs1` [BRECANAVIR], the results for the Cmax in data set [1] and in data set [7] were 3.96 ng/mL and 49.2 ng/mL, respectively. This compound had an AUC tau at 12 h in data set [2] of 199 ng·h/mL. In data set [3], the CL/F is 67000 mL/min. In addition, the Tmax worked out at 3.75 h in data set [4] and 2.5 h in data set [6]. Also, the concentration at 12 h in data set [5] is 2.6 ng/mL.
